In ChEMBL document CHEMBL1201862, “PubChem BioAssay data set” (2004):
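Cultured in 96-well plates, cells were exposed to test compound for 48 hours across five concentrations. At the GI50, growth is halved.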 The source made the active and inactive calls. Rule as the data show it: active = GI50 up to about 1.1 µM and inactive = higher.

How the values were obtained:
Test in all cases: NCI-60 cell line screen, 48 h
[1] = system: 786-0
[2] = system: A498
[3] = system: A549
[4] = system: ACHN
[5] = system: CAKI-1
[6] = system: COLO 205
[7] = system: DLD-1
[8] = system: DMS-114
[9] = system: DMS-273
[10] = system: EKVX
[11] = system: HCC 2998
[12] = system: HCT-116
[13] = system: HCT-15
[14] = system: HL-60
[15] = system: HOP-18
[16] = system: HOP-62
[17] = system: HOP-92
[18] = system: HT-29
[19] = system: IGROV-1
[20] = system: K562
[21] = system: KM-20L2
[22] = system: KM12
[23] = system: LOX IMVI
[24] = system: LXFL 529
[25] = system: M14
[26] = system: M19-MEL
[27] = system: MOLT-4
[28] = system: Malme-3M
[29] = system: NCI-H226
[30] = system: NCI-H23
[31] = system: NCI-H460
[32] = system: NCI-H522
[33] = system: OVCAR-3
[34] = system: OVCAR-4
[35] = system: OVCAR-5
[36] = system: OVCAR-8
[37] = system: RPMI-8226
[38] = system: RXF 393
[39] = system: SF-268
[40] = system: SF-295
[41] = system: SF-539
[42] = system: SK-MEL-28
[43] = system: SK-MEL-2
[44] = system: SK-MEL-5
[45] = system: SK-OV-3
[46] = system: SN12C
[47] = system: SNB-19
[48] = system: SNB-75
[49] = system: SNB-78
[50] = system: SR
[51] = system: SW-620
[52] = system: TK-10
[53] = system: U-251
[54] = system: UACC-257
[55] = system: UACC-62
[56] = system: UO-31
[57] = system: BT-549
[58] = system: CCRF-CEM
[59] = system: DU-145
[60] = system: Hs-578T
[61] = system: MCF7
[62] = system: MDA-MB-231
[63] = system: MDA-MB-435
[64] = system: MDA-N
[65] = system: NCI/ADR-RES
[66] = system: PC-3
[67] = system: T47D

C=C(C)C1CC2C(C)=C(OC(C)=O)C1n1c(=O)c3cc4ccccc4cc3c(=O)n12 (stereo unspecified)
GI50 [1]: > 95.5 µM (inactive) | GI50 [2]: > 84.5 µM (inactive) | GI50 [3]: > 72.3 µM (inactive) | GI50 [4]: > 82.8 µM (inactive) | GI50 [5]: 62.2 µM (inactive) | GI50 [6]: > 100 µM (inactive) | GI50 [7]: 53.1 µM (inactive) | GI50 [8]: 65.8 µM (inactive) | GI50 [9]: 54.2 µM (inactive) | GI50 [10]: 64.1 µM (inactive) | GI50 [11]: 70.8 µM (inactive) | GI50 [12]: > 76.7 µM (inactive) | GI50 [13]: 57.5 µM | GI50 [14]: 1.41 µM (inactive) | GI50 [15]: > 100 µM (inactive) | GI50 [16]: > 100 µM (inactive) | GI50 [17]: 28.6 µM (inactive) | GI50 [18]: > 80.9 µM (inactive) | GI50 [19]: > 77.1 µM (inactive) | GI50 [20]: 46.2 µM (inactive) | GI50 [21]: > 93.5 µM (inactive) | GI50 [22]: > 82 µM (inactive) | GI50 [23]: > 84.3 µM (inactive) | GI50 [24]: 69.7 µM (inactive) | GI50 [25]: > 100 µM (inactive) | GI50 [26]: 74 µM (inactive) | GI50 [27]: 32.7 µM (inactive) | GI50 [28]: > 89.3 µM (inactive) | GI50 [29]: 34.7 µM (inactive) | GI50 [30]: 50.1 µM (inactive) | GI50 [31]: 62.5 µM (inactive) | GI50 [32]: 51.5 µM (inactive) | GI50 [33]: 46.9 µM (inactive) | GI50 [34]: 73.3 µM (inactive) | GI50 [35]: > 100 µM (inactive) | GI50 [36]: > 68.7 µM (inactive) | GI50 [37]: 36 µM (inactive) | GI50 [38]: 24.2 µM (inactive) | GI50 [39]: 81.3 µM (inactive) | GI50 [40]: > 71.6 µM (inactive) | GI50 [41]: > 100 µM (inactive) | GI50 [42]: > 100 µM (inactive) | GI50 [43]: > 100 µM (inactive) | GI50 [44]: 87.3 µM (inactive) | GI50 [45]: > 100 µM (inactive) | GI50 [46]: 98.2 µM (inactive) | GI50 [47]: > 100 µM (inactive) | GI50 [48]: 42 µM (inactive) | GI50 [49]: 95.9 µM (inactive) | GI50 [50]: 36 µM (inactive) | GI50 [51]: > 71.4 µM (inactive) | GI50 [52]: > 100 µM (inactive) | GI50 [53]: 63.1 µM (inactive) | GI50 [54]: > 100 µM (inactive) | GI50 [55]: 31.8 µM (inactive) | GI50 [56]: > 83 µM (inactive)

CCOP(=O)(OCC)/C(C#N)=C/c1ccc(-c2ccc(F)cc2F)o1
GI50 [1]: 13.9 µM (inactive) | GI50 [2]: 15.1 µM (inactive) | GI50 [3]: 15.3 µM (inactive) | GI50 [4]: 13.3 µM (inactive) | GI50 [57]: 11.7 µM (inactive) | GI50 [5]: 15.3 µM (inactive) | GI50 [58]: 14.6 µM (inactive) | GI50 [6]: 14.9 µM (inactive) | GI50 [59]: 27.2 µM (inactive) | GI50 [10]: 16.3 µM (inactive) | GI50 [11]: 14 µM (inactive) | GI50 [12]: 17.4 µM (inactive) | GI50 [13]: 13.5 µM | GI50 [14]: 12.3 µM (inactive) | GI50 [16]: 19.2 µM (inactive) | GI50 [17]: 15.2 µM (inactive) | GI50 [18]: 16.5 µM (inactive) | GI50 [60]: > 10 µM (inactive) | GI50 [19]: 13.9 µM (inactive) | GI50 [20]: 12.2 µM (inactive) | GI50 [22]: 16 µM (inactive) | GI50 [23]: 13.3 µM (inactive) | GI50 [25]: 17.2 µM (inactive) | GI50 [61]: 19.7 µM (inactive) | GI50 [62]: 16.7 µM (inactive) | GI50 [63]: 12.6 µM (inactive) | GI50 [64]: 33.7 µM (inactive) | GI50 [27]: 10.6 µM (inactive) | GI50 [28]: 18.4 µM (inactive) | GI50 [29]: 16.5 µM (inactive) | GI50 [30]: 14.5 µM (inactive) | GI50 [31]: 20 µM (inactive) | GI50 [32]: 15.3 µM (inactive) | GI50 [65]: 22.1 µM (inactive) | GI50 [33]: 14.9 µM (inactive) | GI50 [34]: 18.2 µM (inactive) | GI50 [35]: 17.3 µM (inactive) | GI50 [36]: 15.2 µM (inactive) | GI50 [66]: 10.8 µM (inactive) | GI50 [37]: 18.4 µM (inactive) | GI50 [38]: 29 µM (inactive) | GI50 [39]: 17.3 µM (inactive) | GI50 [40]: 16.4 µM (inactive) | GI50 [41]: 20.7 µM (inactive) | GI50 [42]: 14.8 µM (inactive) | GI50 [43]: 23.5 µM (inactive) | GI50 [44]: 10.6 µM (inactive) | GI50 [45]: 14 µM (inactive) | GI50 [46]: 15.8 µM (inactive) | GI50 [47]: 16.9 µM (inactive) | GI50 [48]: 18.5 µM (inactive) | GI50 [50]: 15 µM (inactive) | GI50 [51]: 18.7 µM (inactive) | GI50 [67]: 3.3 µM (inactive) | GI50 [52]: 12.6 µM (inactive) | GI50 [53]: 14.8 µM (inactive) | GI50 [54]: 13.3 µM (inactive) | GI50 [55]: 11.3 µM (inactive) | GI50 [56]: 13.1 µM (inactive)

COc1ccc(/C=N/n2cnc3c(c2=O)SC(=C(C#N)C#N)N3c2ccccc2)cc1
GI50 [3]: > 100 µM (inactive) | GI50 [4]: > 100 µM (inactive) | GI50 [58]: > 100 µM (inactive) | GI50 [6]: > 100 µM (inactive) | GI50 [7]: > 100 µM (inactive) | GI50 [11]: > 100 µM (inactive) | GI50 [12]: > 100 µM (inactive) | GI50 [14]: > 100 µM (inactive) | GI50 [15]: 50.7 µM (inactive) | GI50 [16]: 86.5 µM (inactive) | GI50 [17]: 38.8 µM (inactive) | GI50 [18]: > 100 µM (inactive) | GI50 [19]: > 100 µM (inactive) | GI50 [20]: > 100 µM (inactive) | GI50 [22]: > 100 µM (inactive) | GI50 [24]: > 100 µM (inactive) | GI50 [26]: > 100 µM (inactive) | GI50 [27]: > 100 µM (inactive) | GI50 [29]: > 100 µM (inactive) | GI50 [30]: > 100 µM (inactive) | GI50 [31]: > 100 µM (inactive) | GI50 [32]: 56.2 µM (inactive) | GI50 [33]: > 100 µM (inactive) | GI50 [35]: > 100 µM (inactive) | GI50 [36]: > 100 µM (inactive) | GI50 [37]: > 100 µM (inactive) | GI50 [39]: 41.1 µM (inactive) | GI50 [40]: 74.5 µM (inactive) | GI50 [41]: 36.2 µM (inactive) | GI50 [42]: 90.8 µM (inactive) | GI50 [44]: > 100 µM (inactive) | GI50 [45]: > 100 µM (inactive) | GI50 [47]: > 100 µM (inactive) | GI50 [48]: 27.6 µM (inactive) | GI50 [50]: > 100 µM (inactive) | GI50 [51]: > 100 µM (inactive) | GI50 [52]: > 100 µM (inactive) | GI50 [53]: > 100 µM (inactive) | GI50 [54]: > 100 µM (inactive) | GI50 [55]: > 100 µM (inactive) | GI50 [56]: > 100 µM (inactive)
